Laboratory results taken from patent publication US20140256771A1, “COMPOUNDS THAT MODULATE INTRACELLULAR CALCIUM” (CalciMedica, Inc., priority 2011, published 2014).
Like-named read-outs stand apart in the source and are kept apart here.

Tests used:
[1] = target: T1, Orai1/STIM1 (Homo sapiens, UniProt Q96D31); experiment: Fluorescence-based assay of store-operated calcium entry in Orai1/STIM1 stable cells; assay type: cell-based; conditions: HEK-293 cells stably expressing human STIM1 and Orai1, 50% inhibition of Peak-Basal fluo-4 signal; for IC50: read-out: Orai1/STIM1 (IC50, μmol)
T1 construct: expressed in transfected cells; host or cells: HEK-293
Description: A. Fluorescence-based Assay of Store-Operated Calcium Entry in Orai1/STIM1 Stable Cells.
Cells stably expressing recombinant human STIM1 and Orai1 are generated by transfecting a human Orai1 expression plasmid (pcDNA3.1-Orai1-cmyc) into HEK-293 cells stably overexpressing human STIM1 (Roos et al. 2005 JCB 169(3): 435-445). Colonies of cells stably expressing both STIM1 and Orai1 proteins are selected and then subcloned by limiting dilution. Cells were cultured at 37° C./6% CO2 in complete medium with 10% FBS and appropriate selection markers.
The day prior to performing the assay Orai1/STIM1 stable cells are plated in 50 μL of complete medium at 90-95% confluence in a 384 well plate. Cells are grown at 37° C./6% CO2 overnight. On the day of the assay, 1.5 μM fluo-4-AM (Invitrogen) in complete medium is added to the cells, which are then incubated for 1 hour at RT. Cells are washed once in Ca^2+-free HBSS (Hank's buffered saline solution) and 35 μl of Ca^2+-free HBSS is added to each well. Test compounds are added to wells in a 10 μL Ca^2+-free HBSS solution, prepared at 4.5× the desired final concentration, and incubated for 30 minutes at RT. The initial baseline fluorescence signal is then measured with a FLIPR^384 (Molecular Devices) plate reader. Calcium entry is initiated by adding 5 μl of 10× CaCl2 (10 mM) in HBSS, and changes in cellular fluorescence are measured with the FLIPR^384 plate reader. In each well, the magnitude of the fluorescence signal as a result of calcium entry into the cell is determined by calculating the difference between the peak fluorescence signal measured after calcium addition and the initial baseline fluorescence signal (designated Peak-Basal). IC50 values are typically calculated as the concentration that inhibited 50% of the Peak-Basal signal (Table A).

[2] = system: RBL-2H3 cells; experiment: Fluorescence-based assay of store-operated calcium entry in RBL-2H3 cells; assay type: cell-based, rat; conditions: Rattus norvegicus, RBL-2H3, thapsigargin store depletion, 50% inhibition of Upslope, read-out: RBL-2H3 (IC50, μmol)
Description: B. Fluorescence-based Assay of Store-Operated Calcium Entry in RBL-2H3Cells.
RBL-2H3 cells are obtained from ATCC and maintained in complete medium with 10% FBS at 37° C./6% CO2.
The day prior to performing the assay, RBL-2H3 cells are plated in 50 μL of complete medium in a 384 well plate. Cells are grown at 37° C./6% CO2 overnight and grow to 50-60% confluence by the next day. On the assay day, 1.5 μM Fluo-4-AM dye (Invitrogen) in complete medium is added and incubated for 1 hour at RT. Cells are washed twice in Ca^2+-free HBSS buffer and 35 μL Ca^2+-free HBSS buffer is added to each well. 10 μL of a test compound prepared in a Ca^2+-free HBSS solution at 4.5× of the desired concentration is added to a well and incubated for 5 minutes at RT. 10 μL of thapsigargin prepared in a Ca^2+-free HBSS solution at 5.5× of the desired concentration (5.5 uM) is added to each well and incubated for an additional 25 minutes. The initial baseline fluorescence signal is measured with a FLIPR^384 (Molecular Devices) plate reader. 5 μL of 12× calcium in HBSS (12 mM) is added and changes in cellular fluorescence are measured with the FLIPR^384 plate reader. In each well, the change in the fluorescent signal as a function of time due to calcium entry into the cell is determined by calculating the difference between the fluorescent signal measured 7 seconds after calcium addition and the initial baseline fluorescence signal at time zero (t=0). This parameter is designated Upslope. The IC50 value is calculated as the concentration at which 50% of the Upslope is inhibited.

T1 sequence (Q96D31 whole entry): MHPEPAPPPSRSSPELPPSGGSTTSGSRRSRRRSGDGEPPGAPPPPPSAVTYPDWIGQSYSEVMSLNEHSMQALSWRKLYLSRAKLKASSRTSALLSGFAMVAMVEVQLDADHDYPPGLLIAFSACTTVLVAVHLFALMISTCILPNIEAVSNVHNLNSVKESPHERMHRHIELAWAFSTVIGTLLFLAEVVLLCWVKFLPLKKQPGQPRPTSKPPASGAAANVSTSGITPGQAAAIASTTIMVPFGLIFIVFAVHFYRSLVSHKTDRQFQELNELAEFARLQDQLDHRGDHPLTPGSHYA

| IC50 ([1]; Table iv) [nM] | IC50 ([2]; Table iv) [nM] | IC50 ([1]; Table iii) [nM] | IC50 ([2]; Table iii) [nM] | Orai1/STIM1 (IC50, μmol) ([1]; Table iii) | SMILES |
| --- | --- | --- | --- | --- | --- |
| – | – | < 600 | < 600 | – | Cc1cc(C(F)(F)F)nn1-c1ccc(NCc2ccccc2F)cc1 |
| – | – | 600 to 1200 | < 600 | – | Cc1cc(C(F)(F)F)nn1-c1ccc(NCc2ccc(F)cc2F)cc1 |
| < 600 | < 600 | – | – | – | CCn1nc(C(F)(F)F)cc1-c1ccc(NC(=O)c2c(F)cccc2F)cc1F |
| > 1200 | 600 to 1200 | – | – | – | Cc1nc(C(F)(F)F)cn1-c1ccc(NC(=O)c2c(F)cccc2F)cc1F |
| < 600 | < 600 | – | – | – | CCn1nc(C(F)(F)F)cc1-c1ccc(NC(=O)c2ccccc2F)cc1F |
| – | – | < 600 | < 600 | – | Cc1nc(C(F)(F)F)cn1-c1ccc(NCc2c(F)ccc(F)c2F)cc1F |
| 600 to 1200 | < 600 | – | – | – | Cc1cc(C(F)(F)F)nn1-c1ccc(NC(=O)c2c(F)cccc2F)cc1 |
| < 600 | < 600 | – | – | – | Cc1nn(C(F)F)cc1-c1ccc(NC(=O)c2c(F)cc(F)cc2F)cc1 |
| < 600 | < 600 | – | – | – | Cc1nn(C(F)F)cc1-c1ccc(NC(=O)c2c(F)cccc2F)cc1F |
| < 600 | < 600 | – | – | – | Cc1cc(C(F)(F)F)nn1-c1ccc(NC(=O)c2ccc(F)cc2F)cc1 |
| < 600 | < 600 | – | – | – | Cn1nc(C(F)(F)F)cc1-c1ccc(NC(=O)c2ccc(F)cc2F)cc1 |
| – | < 600 | – | – | – | O=C(Nc1ccc(-n2nc(C(F)(F)F)cc2C(F)(F)F)cc1)c1ccccc1F |
| < 600 | < 600 | – | – | – | Cc1sc(C(F)(F)F)nc1-c1ccc(NC(=O)c2c(F)cccc2F)cc1 |
| > 1200 | < 600 | – | – | – | O=C(Nc1ccc(-n2nc(C(F)(F)F)cc2C(F)(F)F)cc1)c1c(F)cncc1F |
| – | – | 600 to 1200 | < 600 | – | Fc1cccc(F)c1CNc1ccc(-n2nc(C(F)(F)F)cc2C(F)(F)F)cc1 |
| < 600 | < 600 | – | – | – | Cc1nn(C(F)F)cc1-c1ccc(NC(=O)c2c(F)cccc2F)cc1 |
| > 1200 | < 600 | – | – | – | Cc1cc(C(F)(F)F)nn1-c1ccc(NC(=O)c2c(F)ccc(F)c2F)cc1 |
| < 600 | < 600 | – | – | – | Cn1nc(C(F)(F)F)cc1-c1ccc(NC(=O)c2c(F)ccc(F)c2F)cc1 |
| – | – | < 600 | < 600 | – | Cc1nc(C(F)(F)F)cn1-c1ccc(NCc2c(F)cc(F)cc2F)cc1 |
| < 600 | < 600 | – | – | – | Cn1nc(C(F)(F)F)cc1-c1ccc(NC(=O)c2c(F)cncc2F)cc1F |
| – | – | 600 to 1200 | < 600 | – | Fc1cncc(F)c1CNc1ccc(-n2nc(C(F)(F)F)cc2C(F)(F)F)cc1 |
| < 600 | < 600 | – | – | – | Cn1nc(C(F)(F)F)cc1-c1ccc(NC(=O)c2c(F)cc(F)cc2F)cc1 |
| – | – | < 600 | < 600 | – | Cn1nc(C(F)(F)F)cc1-c1ccc(NCc2c(F)cc(F)cc2F)cc1 |

Continued, molecule first:

| SMILES | IC50 ([1]; Table iv) [nM] | IC50 ([2]; Table iv) [nM] | IC50 ([1]; Table iii) [nM] | IC50 ([2]; Table iii) [nM] | Orai1/STIM1 (IC50, μmol) ([1]; Table iii) |
| --- | --- | --- | --- | --- | --- |
| Cc1cc2c(cc1-c1ccc(NC(=O)c3c(F)cccc3F)cc1F)OC(F)(F)O2 | > 1200 | < 600 | – | – | – |
| Cc1cc2c(cc1-c1ccc(NC(=O)c3ccncc3F)cc1)OC(F)(F)O2 | 600 to 1200 | < 600 | – | – | – |
| Cc1cc(F)ccc1CNc1ccc(-c2cc(C(F)F)nn2C)c(F)c1 | – | – | 600 to 1200 | < 600 | – |
| Cc1nn(C(F)F)cc1-c1ccc(NCc2ccccc2F)cc1F | – | – | < 600 | < 600 | – |
| Cc1cc2c(cc1-c1ccc(NCc3snnc3F)cc1)OC(F)(F)O2 | – | – | 600 to 1200 | < 600 | – |
| Cc1cc2c(cc1-c1ccc(NCc3ccccc3F)cc1)OC(F)(F)O2 | – | – | > 1200 | < 600 | – |
| Cc1nn(C(F)F)cc1-c1ccc(NCc2c(F)cc(F)cc2F)cc1F | – | – | < 600 | < 600 | – |
| Cc1cnccc1C(=O)Nc1ccc(-c2cc(C(F)(F)F)nn2C)c(F)c1 | 600 to 1200 | < 600 | – | – | – |
| Cn1nc(C(F)(F)F)cc1-c1ccc(NCc2ccc(F)cc2F)cc1F | – | – | < 600 | < 600 | – |
| Cc1cc(F)ccc1CNc1ccc(-c2cc(C(F)(F)F)nn2C)c(F)c1 | – | – | < 600 | < 600 | – |
| Cn1nc(C(F)(F)F)cc1-c1ccc(NCc2ccncc2F)cc1F | – | – | < 600 | < 600 | – |
| Cc1cc2c(cc1-c1ccc(NCc3c(F)cncc3F)cc1)OC(F)(F)O2 | – | – | < 600 | < 600 | – |
| Cc1cc(F)ccc1C(=O)Nc1ccc(-c2cc(C(F)F)nn2C)c(F)c1 | < 600 | < 600 | – | – | – |
| CCn1nc(C(F)(F)F)cc1-c1ccc(NCc2c(F)cc(F)cc2F)cc1F | – | – | 600 to 1200 | < 600 | – |
| CCn1nc(C(F)(F)F)cc1-c1ccc(NCc2ccccc2F)cc1 | – | – | < 600 | < 600 | – |
| Cn1nc(C(F)(F)F)cc1-c1c(F)cc(NC(=O)c2ccc(F)cc2F)cc1F | < 600 | < 600 | – | – | – |
| Cc1nn(C(F)F)cc1-c1ccc(NCc2ccccc2F)cc1 | – | – | 600 to 1200 | < 600 | – |
| Cn1nc(C(F)(F)F)cc1-c1c(F)cc(NCc2ccccc2F)cc1F | – | – | – | < 600 | Max inh. <50% |
| Cn1nc(C(F)(F)F)cc1-c1c(F)cc(NC(=O)c2c(F)cncc2F)cc1F | 600 to 1200 | < 600 | – | – | – |
| CCn1nc(C(F)(F)F)cc1-c1ccc(NCc2c(F)cccc2F)cc1 | – | – | < 600 | < 600 | – |
| Cn1nc(C(F)(F)F)cc1-c1ccc(NCc2c(F)cccc2F)c(F)c1 | – | – | < 600 | < 600 | – |
| Cc1sc(C(F)(F)F)nc1-c1ccc(NC(=O)c2ccccc2F)cc1 | < 600 | < 600 | – | – | – |
| Cc1nn(C(F)F)cc1-c1ccc(NCc2c(F)cccc2F)cc1 | – | – | < 600 | < 600 | – |
| Cc1nnsc1CNc1ccc(-c2cc(C(F)(F)F)nn2C)c(F)c1 | – | – | > 1200 | 600 to 1200 | – |
| CCn1nc(C(F)(F)F)cc1-c1ccc(NCc2c(F)cccc2F)cc1F | – | – | 600 to 1200 | < 600 | – |
| Cc1nn(C(F)F)cc1-c1ccc(NC(=O)c2c(F)cc(F)cc2F)cc1F | < 600 | < 600 | – | – | – |
